The conditions of series [1]: cited from earlier work.
Series [2] in a line: Saturation solubility of DTX in the solution-filled reservoir. It is filed as physicochemical. The conditions noted are these: 40 mg/ml BSA solution in PBS inside the device reservoir, aqueous buffer, thermodynamic from solid; solid DTX dissolved by BSA solution in PBS inside the reservoir, 37° C. How it is done: Step 8: The device was exposed to a 40 mg/ml bovine serum albumin (BSA, Sigma-Aldrich Canada Ltd., Ontario, Canada) solution in phosphate buffered saline (PBS) and incubated at 37° C. to increase the wet ability of the magnetic PDMS membrane and thus filling of the drug reservoir with water. The hydrophilic aperture walls results in surface-tension driven flow through the aperture and gradual filling of the reservoir with solution.

Series [3] is described as follows: HPLC test of drug released after 8 months inside the device. It is filed as physicochemical. The conditions noted are these: HPLC after 8 months encapsulated inside the device. Here is the method: The released drug from the device was tested with HPLC after 8 months that was encapsulated inside the device.
Series [4] deals with PC3 cells. Description: PC3 cell viability (MTS assay). The conditions noted are these: for cell viability equilibrated: PC3 cells, 2 days incubation. In kind it is cell-based. Here is the method: (§1) A prototype device was actuated at the desired number of actuations in 1% BSA solution. The released DTX was extracted in 1 ml DCM, as described previously. This mixture was dried down under nitrogen flow at 40° C. and was then reconstituted in either HUVEC and PC3 cell media to the original volume of 4 ml. Alternatively, fresh solutions of free DTX were prepared in various concentrations (2-250 nM) in acetonitrile, dried down under nitrogen flow at 40° C., and reconstituted in cell media.
PC3 and HUVEC cells were seeded in 96 well plates in their respective media at a concentration of 1500 cells per well. The cells were allowed to equilibrate for 2 days at which time they became approximately 50% confluent and were ready for drug incubation. Cells were incubated for 2 days at 37° C. with 200 μl of either freshly prepared solutions of DTX at various concentrations or with the drug solution released from the device under various number of device actuations. Cell viability was determined using a CellTiter 96 AQueous Non-Radioactive Cell Proliferation Assay (MTS assay, Promega Corporation, Madison, Wis.) and quantified by reading the absorbance at 492 nm minus the absorbance at 610 nm using a spectrometric plate reader. In both experiments, the values presented are for the averages of six replicas for each condition.
The biological activity of the DTX released from a device was investigated. This was achieved by incubating cells with the released drug in cell culture media and measuring the drug induced inhibition of proliferation in comparison to the inhibition caused by freshly made drug solutions. The device used for this study had been fabricated and left in BSA solution for two months (with an open aperture) prior to the experiment. The amount of DTX release during this period was estimated to be about 4.5 μg based on measured DTX diffusion rate. It was then actuated under a 255 mT magnetic field for different numbers of actuation cycles. The amounts of released drug were then experimentally interpolated from “number of actuations” to “drug concentrations”, using FIG. 4-a. […]

Series [5] relates to HUVECs. The series is described as follows: HUVEC viability (MTS assay). In kind it is cell-based. The conditions noted are these: 2 days incubation. How it is done:
as §1
PC3 and HUVEC cells were seeded in 96 well plates in their respective media at a concentration of 1500 cells per well. The cells were allowed to equilibrate for 2 days at which time they became approximately 50% confluent and were ready for drug incubation. […] Cell viability was determined using a CellTiter 96 AQueous Non-Radioactive Cell Proliferation Assay (MTS assay, Promega Corporation, Madison, Wis.) and quantified by reading the absorbance at 492 nm minus the absorbance at 610 nm using a spectrometric plate reader. […]
The biological activity of the DTX released from a device was investigated. […] The amount of DTX release during this period was estimated to be about 4.5 μg based on measured DTX diffusion rate. […]
For orientation: Formazan colour is commonly taken as a measure of viable cells.

Setting [6] is: drug released from the device (255 mT, device kept two months in BSA solution).

The values below come from patent US9289584B2, “Remotely controlled drug delivery systems” (THE UNIVERSITY OF BRITISH COLUMBIA, priority 2010, dated 2016).

Values after ≈ are worked out from the molar mass of the structure shown. Read-outs that look alike come from different tables or passages of the source.

Consider `CC(C)OC(=O)CCC/C=C\C[C@@H]1[C@@H](CC[C@@H](O)CCc2ccccc2)[C@H](O)C[C@@H]1O` [latanoprost], for which the solubility in series [1] was 50000 µg/mL (≈ 116 mM).
In the case of `CC(=O)O[C@@]12CO[C@@H]1C[C@H](O)[C@@]1(C)C(=O)[C@H](O)C3=C(C)[C@@H](OC(=O)[C@H](O)[C@@H](NC(=O)OC(C)(C)C)c4ccccc4)C[C@@](O)([C@@H](OC(=O)c4ccccc4)[C@H]21)C3(C)C` [DTX, docetaxel], the solubility in series [2] is ~5 µg/mL (≈ 0.00619 mM). Besides, in series [3], the drug remained intact entry is “over 95%”. Moreover, the cell viability equilibrated entry is on record as “about 34%” in series [4] (setting [6]), “about 34%” in series [4] (fresh free drug), “about 24%” in series [5] (setting [6]) and “about 24%” in series [5] (fresh free drug). Also, the “stability of DTX inside the PDMS MEMS device” value in series [4] (after two months, judged by antiproliferative effect) was “does not degrade”.
Consider `CC(C)(C)NC[C@H](O)COc1nsnc1N1CCOCC1` [timolol], for which the solubility in series [1] was 2500 µg/mL (≈ 7.9 mM).

As a reminder, the solubility is the dissolved amount per volume that the medium holds.
